GI50 and TGI data for 11 compounds are collected here from PubChem BioAssay (NCI).

Test systems include A549 NSCLC; ACHN renal; DU-145 prostate; HOP-92 NSCLC; MOLT-4 leukemia; NCI-H226 lung; NCI-H522 lung.
What all share (test): NCI anticancer screen, dose series, 48 h

Molecules are shown by their SMILES. “And” between values parts separate entries of the source, which are not always exact repeats. Equal entries are not always repeated.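 Test compounds were applied to cells in 96-well plates for 48 hours at 5 doses. GI50: concentration for 50% inhibition of growth. Definition used: TGI = concentration required for complete inhibition of growth.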 Bounds are passed on as bounds.

As to `O=C(/C=C/c1ccccc1)Nc1ncc(Cc2ccccc2Cl)s1`, the GI50 is 0.469 µM with A549 NSCLC; 0.612 µM with ACHN renal; 0.41 µM in the test on DU-145 prostate; 1.26 µM in the test with HOP-92 NSCLC; 0.459 µM in the test on MOLT-4 leukemia; 0.35 µM with NCI-H226 lung. Moreover, in the test on NCI-H522 lung, the GI50 was 0.474 µM. The TGI with A549 NSCLC, in the test with ACHN renal, in the test on DU-145 prostate, in the test on HOP-92 NSCLC, in the test on MOLT-4 leukemia and in the test on NCI-H226 lung was above 100 µM in each case. This compound also displayed a TGI in the test on NCI-H522 lung above 100 µM.
As to `CN(c1ccc(NC(=O)Nc2c(Cl)cccc2Cl)cc1)c1ccnc(Nc2cccc(CS(C)(=O)=O)c2)n1`, the GI50 is 1.65 µM in the test with A549 NSCLC; 3.48 µM with ACHN renal; 3.07 µM with DU-145 prostate; 2.88 µM in the test with HOP-92 NSCLC; above 25 µM with MOLT-4 leukemia; 4.67 µM with NCI-H226 lung. Besides, the GI50 in the test with NCI-H522 lung was 3.1 µM. Moreover, the TGI in the test with A549 NSCLC was 7.66 µM; in the test on ACHN renal it was 8.79 µM; in the test on DU-145 prostate, 6.72 µM; with HOP-92 NSCLC, 12 µM; in the test on MOLT-4 leukemia, above 25 µM; in the test with NCI-H226 lung, above 20.2 µM. Also, the TGI in the test with NCI-H522 lung worked out at 9.23 µM.
With `CCCCCCCCCCCCCCCCCCOC[C@H](COP(=O)(O)O[C@H]1[C@H](O)[C@@H](O)[C@H](O)C[C@H]1O)OC`, the GI50 in the test with A549 NSCLC is > 100 µM and 15 µM; in the test on ACHN renal it was > 100 µM and 16.3 µM; with DU-145 prostate, > 100 µM and 17.3 µM; in the test on HOP-92 NSCLC, 29.4 µM and 12.3 µM; in the test on MOLT-4 leukemia it was 27 µM and 12.4 µM; in the test on NCI-H226 lung it was > 100 µM and 24 µM. Also, the GI50 in the test with NCI-H522 lung is 36.5 µM and 11.4 µM. Besides, the TGI with A549 NSCLC was > 100 µM and 28.8 µM; with ACHN renal it was > 100 µM and 30 µM; in the test on DU-145 prostate, > 100 µM and 34.5 µM; in the test with HOP-92 NSCLC, > 100 µM and 25.3 µM; with MOLT-4 leukemia, > 100 µM and 33 µM; in the test on NCI-H226 lung, > 100 µM and 44.5 µM. Moreover, the TGI in the test with NCI-H522 lung was > 100 µM and 25.4 µM.
Consider `Nc1n[nH]c2cccc(C#Cc3cccc(NC(=O)c4cccc(C(F)(F)F)c4)c3)c12`, for which the GI50 is 4.84 µM with A549 NSCLC; 2.44 µM with ACHN renal; 5.69 µM in the test on DU-145 prostate; 1.9 µM with HOP-92 NSCLC; 2.21 µM in the test on MOLT-4 leukemia; 0.86 µM with NCI-H226 lung. Also, in the test with NCI-H522 lung, the GI50 was 4.42 µM. Also, the TGI was 18.6 µM with A549 NSCLC; 9.78 µM with ACHN renal; 17.6 µM in the test on DU-145 prostate; 5.24 µM with HOP-92 NSCLC; 13.3 µM in the test on MOLT-4 leukemia; 20.3 µM in the test with NCI-H226 lung. The same compound yielded a TGI with NCI-H522 lung of 18.1 µM.
Consider `CCCCCCCCn1ccc2cc(NC(=O)Cn3cc(CN4CCCCCC4)nn3)ccc21`, for which the GI50 is 1.77 µM in the test with A549 NSCLC; 1.73 µM in the test on ACHN renal; 1.97 µM with DU-145 prostate; 1.26 µM in the test with HOP-92 NSCLC; 2.05 µM in the test with MOLT-4 leukemia; 2.23 µM in the test with NCI-H226 lung. Moreover, the GI50 in the test with NCI-H522 lung is 1.85 µM. In addition, the TGI in the test with A549 NSCLC is 3.36 µM; in the test with ACHN renal, 3.11 µM; with DU-145 prostate, 3.81 µM; in the test on HOP-92 NSCLC, 2.61 µM; in the test with MOLT-4 leukemia it was 5.08 µM; with NCI-H226 lung, 5.07 µM. The same compound came in with a TGI with NCI-H522 lung of 3.59 µM.
As for `COCCOC(=O)C1=C(O)c2ccccc2S(=O)(=O)N1C`, the TGI with A549 NSCLC, with ACHN renal, in the test on DU-145 prostate, in the test on HOP-92 NSCLC, in the test with MOLT-4 leukemia and in the test with NCI-H226 lung was above 100 µM in each case. The compound further had a TGI with NCI-H522 lung above 100 µM.
As to `CC(C)C(O)(C(C)C)C(C)C`, the TGI in the test on A549 NSCLC, in the test on ACHN renal, with DU-145 prostate, with HOP-92 NSCLC, in the test with MOLT-4 leukemia and with NCI-H226 lung was above 100 µM each time. In addition, in the test with NCI-H522 lung, the TGI is above 100 µM.
Regarding `CC1(C)N=C(N)N=C(N)N1c1ccc(CCC(=O)Nc2ccc(S(=O)(=O)F)cc2)c(Cl)c1`, the GI50 in the test on A549 NSCLC is 0.517 µM; with ACHN renal it was 5.37 µM; in the test on DU-145 prostate, 0.593 µM; in the test with HOP-92 NSCLC, 6.54 µM; in the test with MOLT-4 leukemia, 1.2 µM; with NCI-H226 lung, 14.4 µM. The GI50 in the test with NCI-H522 lung was 0.642 µM. The TGI with A549 NSCLC, in the test with ACHN renal, in the test with DU-145 prostate, in the test on HOP-92 NSCLC, in the test with MOLT-4 leukemia and in the test on NCI-H226 lung was above 100 µM each time. Besides, the TGI with NCI-H522 lung was above 100 µM.
For `CC(C)CNc1nc(-c2ccccc2Cl)nc2ccccc12`, the GI50 with A549 NSCLC was 14.1 µM; in the test on ACHN renal it was 15.1 µM; in the test on DU-145 prostate it was 16.1 µM; in the test with HOP-92 NSCLC it was 15.6 µM; in the test on MOLT-4 leukemia it was 17.9 µM; in the test on NCI-H226 lung it was 17.7 µM. For the same compound, the GI50 in the test with NCI-H522 lung is 25.5 µM. Besides, the TGI in the test with A549 NSCLC is 33.5 µM; in the test on ACHN renal, 33.8 µM; in the test on DU-145 prostate it was 30.5 µM; in the test with HOP-92 NSCLC, 35.2 µM; with MOLT-4 leukemia, 54.9 µM; with NCI-H226 lung, 35 µM. The TGI in the test on NCI-H522 lung was above 100 µM.
For `COC(=O)c1ccc2[nH]c(O)c(C(=Nc3ccc(N(C)C(=O)CN4CCN(C)CC4)cc3)c3ccc4c(c3)OCO4)c2c1`, the GI50 with A549 NSCLC is 1.09 µM; in the test with ACHN renal, 1.58 µM; with DU-145 prostate it was 1.03 µM; in the test with HOP-92 NSCLC it was 2.09 µM; in the test on MOLT-4 leukemia, 0.323 µM; in the test on NCI-H226 lung, 0.616 µM. Also, the GI50 in the test on NCI-H522 lung was 0.859 µM. Also, the TGI in the test on A549 NSCLC was 4.12 µM; with ACHN renal, 7.11 µM; with DU-145 prostate it was 6.06 µM; in the test with HOP-92 NSCLC, 7.75 µM; in the test on MOLT-4 leukemia, 2.4 µM; in the test on NCI-H226 lung, 6.13 µM. Moreover, in the test with NCI-H522 lung, the TGI is 3.66 µM.
Take `Oc1ccc2ccccc2c1N=Nc1cccc2ccccc12`: the TGI with A549 NSCLC, in the test on ACHN renal, in the test with DU-145 prostate, in the test with HOP-92 NSCLC, in the test on MOLT-4 leukemia and in the test with NCI-H226 lung was above 100 µM each time. Also, the TGI in the test with NCI-H522 lung is above 100 µM.
